Counter-ions that a name gives are not always drawn. Like-named read-outs stand apart in the source and are kept apart here.
Columns and labels:
[1] = test system: OVCAR-3 cells; test: In vitro OVCAR-3 cell viability assay (CellTiter-Glo); format: cell-based; details: Homo sapiens, OVCAR-3, 168 h, 7 days incubation
Protocol: 1640 medium, fetal bovine serum, and penicillin/streptomycin antibiotics were purchased from Wisent. CellTiter-Glo (cell viability chemiluminescence assay reagent) was purchased from Promega. The OVCAR-3 cell line was purchased from Nanjing Cobioer Biosciences Co., Ltd. Envision multimode plate reader (PerkinElmer) was used.
OVCAR-3 cells were seeded into a white 384-well plate, with 40 µL of cell suspension containing 300 OVCAR-3 cells per well. The cell plate was incubated overnight in a CO2 incubator.
The test compound was serially diluted 5-fold using a multichannel pipette to the 8th concentration, i.e., from 2000 µM to 0.00512 µM. The experiment was set up with duplicate wells. 78 µL of culture medium was added to an intermediate plate, and 2 µL per well of the gradient-diluted compound was transferred to the corresponding position in the intermediate plate. After mixing, 10 µL per well of the mixture was transferred to the cell plate. The concentration range of the compound transferred to the cell plate was from 10 µM to 0.026 nM. The cell plate was incubated in a CO2 incubator for 7 days. Another cell plate was prepared, and the signal value was read on the day of compound addition to serve as the maximum value (Max in the equation below) for data analysis. 10 µL per well of CellTiter-Glo reagent was added to the cell plate, and the cell plate was incubated at room temperature for 10 minutes to stabilize the luminescence signal. The signal was read using the multimode plate reader.
10 µL per well of CellTiter-Glo reagent was added to the cell plate, and the cell plate was incubated at room temperature for 10 minutes to stabilize the luminescence signal. The signal was read using the multimode plate reader.
The raw data were converted to inhibition rates using the equation (Sample-Min)/(Max-Min)×100%. The IC50 value was obtained by fitting the data to a four-parameter curve (using log(inhibitor) vs. response -- Variable slope model in GraphPad Prism). Table 1 provides the inhibitory activity of the compounds of the present application against OVCAR-3 cell proliferation.

[2] = molecular target: T1, CDK1/cyclin B1 (Homo sapiens, UniProt P06493); test: In vitro CDK1/cyclin B1 enzyme activity assay (TR-FRET); format: biochemical
T1 construct: purchased Carna Biosciences
T1 sequence (P06493 whole entry): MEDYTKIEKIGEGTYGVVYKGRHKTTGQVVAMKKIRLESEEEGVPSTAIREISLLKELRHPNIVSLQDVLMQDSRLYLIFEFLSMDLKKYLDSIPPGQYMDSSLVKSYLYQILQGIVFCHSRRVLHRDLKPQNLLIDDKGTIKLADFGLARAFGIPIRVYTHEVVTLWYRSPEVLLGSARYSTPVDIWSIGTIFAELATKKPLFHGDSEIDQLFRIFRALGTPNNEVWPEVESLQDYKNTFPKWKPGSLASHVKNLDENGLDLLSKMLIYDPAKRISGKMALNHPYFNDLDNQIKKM
T1 sequence (P14635 whole entry partner): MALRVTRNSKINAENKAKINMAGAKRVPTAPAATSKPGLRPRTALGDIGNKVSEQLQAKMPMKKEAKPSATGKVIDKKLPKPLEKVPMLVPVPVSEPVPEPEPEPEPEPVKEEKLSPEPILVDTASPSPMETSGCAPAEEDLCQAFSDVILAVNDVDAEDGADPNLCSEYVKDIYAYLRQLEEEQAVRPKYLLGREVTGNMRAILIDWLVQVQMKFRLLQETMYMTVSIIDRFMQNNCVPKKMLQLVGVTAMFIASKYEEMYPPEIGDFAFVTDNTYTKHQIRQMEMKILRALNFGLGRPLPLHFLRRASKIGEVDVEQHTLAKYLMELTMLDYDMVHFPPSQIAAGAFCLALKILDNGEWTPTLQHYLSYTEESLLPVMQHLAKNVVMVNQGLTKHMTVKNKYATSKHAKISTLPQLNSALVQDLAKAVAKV
Protocol: CDK1/cyclin B1 was purchased from Carna Biosciences. Ulight-4E-BP1 peptide, Eu-anti-phospho-tyrosine antibody, and 1X detection buffer were purchased from PerkinElmer. High-purity ATP was purchased from Promega. EDTA was purchased from Sigma. Nivo multimode plate reader (PerkinElmer) was used.
Preparation of Kinase Buffer Solution: The kinase buffer solution consisted 50 mM HEPES, 1 mM EDTA, 10 mM MgCl2, and 0.01% Brij-35, with pH of 7.4.
(§1) The stop solution was prepared by mixing 100 µL of 1 M EDTA stock solution with […] of 1X detection buffer solution and 1725 µL of distilled water.
The enzyme, Ulight-4E-BP1 peptide, ATP, and the inhibitor were diluted using the kinase buffer solution.
The Eu-anti-phospho-tyrosine antibody was diluted to a concentration of 8 nM/L using the detection buffer solution.
The final concentration of DMSO was 4%, and the experiment was set up with duplicate wells. […] The reaction system was incubated at 25 °C for 60 minutes. After the reaction, 5 µL of the stop solution was added to each well, and further reacted at 25 °C for 5 minutes to terminate the reaction. Then 5 µL of Eu-anti-phospho-tyrosine antibody dilution was added to each well, and the mixture was incubated at 25 °C for 60 minutes.
The IC50 value was obtained by fitting the data to a four-parameter curve (using log(inhibitor) vs. response -- Variable slope model in GraphPad Prism).

[3] = molecular target: T2, CDK2/cyclin E1 (Homo sapiens, UniProt P24941); test: In vitro CDK2/cyclinE enzyme activity assay (TR-FRET); format: biochemical; details: CDK2/cyclin E1, 1 mM ATP, 120 min at 25 °C
T2 construct: purchased SignalChem
Protocol: CDK2/cyclin E1 was purchased from SignalChem. Ulight-4E-BP1 peptide, Eu-anti-phospho-tyrosine antibody, and 1X detection buffer solution were purchased from PerkinElmer. High-purity adenosine triphosphate (ATP) was purchased from Promega. Ethylenediaminetetraacetic acid (EDTA) was purchased from Sigma. Nivo multimode plate reader (PerkinElmer) was used.
Preparation of Kinase Buffer Solution: The kinase buffer solution consisted 50 mM HEPES, 1 mM EDTA, 10 mM MgCl2, and 0.01% Brij-35, with pH of 7.4. 2.38 g HEPES, 58 mg EDTA, 406 mg MgCl2, and 20 mg Brij-35 were added to 200 mL buffer, and the pH was adjusted to 7.4.
as §1
The enzyme, Ulight-4E-BP1 peptide, ATP, and the inhibitor were diluted using the kinase buffer solution. The Eu-anti-phospho-tyrosine antibody was diluted to a concentration of 8 nM/L using the detection buffer solution. The test compound was serially diluted 5-fold using a multichannel pipette to the 8th concentration, i.e., from 4 µM to 0.0512 nM. The final concentration of DMSO was 4%, and the experiment was set up with duplicate wells. 2.5 µL of each gradient concentration of the inhibitor, 5 µL of CDK2/cyclin E1 enzyme (10 ng), and 2.5 µL of a mixture of substrate and ATP (4 mM ATP, 100 nM Ulight-4E-BP1 peptide) were added to a microplate, resulting in a final concentration gradient of the compound from 1 µM to 0.0128 nM, with final ATP and substrate concentrations of 1 mM and 25 nM, respectively. The reaction system was incubated at 25 °C for 120 minutes. After the reaction, 5 µL of the stop solution was added to each well, and further reacted at 25 °C for 5 minutes to terminate the reaction. Then 5 µL of Eu-anti-phospho-tyrosine antibody dilution was added to each well, and the mixture was reacted at 25 °C for 60 minutes. Data were collected using the PerkinElmer Nivo multimode plate reader in TR-FRET mode (excitation wavelength: 320 nm; emission wavelengths: 615 nm and 665 nm).
The raw data were converted to inhibition rates according to the equation (Sample-Min)/(Max-Min)×100%. The IC50 value was obtained by fitting the data to a four-parameter curve (using log(inhibitor) vs. response -- Variable slope model in GraphPad Prism).

[4] = CDK1/cyclin B1, 1 mM ATP, 60 min at 25 °C, Table 1, read-out: CDK1 IC50
[5] = exact values stated in the text below Table 1, read-out: IC50 against CDK1

CONCc1nn2ccnc(Nc3cc([C@H]4CC[C@@H](OC(=O)NC(C)C)C4)[nH]n3)c2c1F [Compound 5]
IC50 [1]: 309 nM
IC50 [2, 4]: > 1000 nM
IC50 [2, 5]: 1500 nM
IC50 [3]: 6.8 nM

CON(C)Cc1nn2ccnc(Nc3cc([C@H]4CC[C@@H](OC(=O)NC(C)C)C4)[nH]n3)c2c1C [Formate salt of compound 2]
IC50 [1]: 124 nM
IC50 [2, 4]: > 1000 nM
IC50 [2, 5]: 4080 nM
IC50 [3]: 4.1 nM

CON(C)Cc1nn2ccnc(Nc3cc([C@H]4CC[C@@H](OC(=O)NC(C)C)C4)[nH]n3)c2c1F [Compound 6]
IC50 [1]: 104 nM
IC50 [2, 4]: > 1000 nM
IC50 [2, 5]: 3490 nM
IC50 [3]: 7.4 nM

From patent publication EP4653431A1, “PYRAZOLE DERIVATIVE, AND PHARMACEUTICALLY ACCEPTABLE SALT, STEREOISOMER, PHARMACEUTICAL COMPOSITION AND USE THEREOF” (Starg (Wuhan) Pharmaceutical Technology Co., Ltd, priority 2023, dated 2024)
